# Test results as given in PMC7038073, “Substituted Piperazines as Novel Potential Radioprotective Agents” (Molecules, 2020).
# Tests used:
# [1] = WST-1 cytotoxicity test, A2780; type: cell-based; settings: human, A2780 cells, 48 h, WST-1, mean ± SD of three experiments, read-out: relative viability (%) compared to untreated control; for viability at 48 h, 10 µM: A2780, 10 µM; for viability at 48 h, 100 µM: A2780, 100 µM
# Protocol: (§1) In this study, the cytotoxic effects of nine new compounds (2, 3, 4, 5, 6, 7, 8, 9, 10) were tested on 10 human cell lines (nine cancer and one non-cancer cell line). The cell lines were treated with each compound at concentrations of 10 µM and 100 µM for 48 h. The proliferation capacity of the treated cells was determined by WST-1 test and compared against the proliferation rate of the untreated control cells (100%).
# (§2) The cell lines Jurkat, MOLT-4, A2780, A549, HT-29, PANC-1, HeLa, MCF-7, SAOS-2, and MRC-5 (all purchased from Sigma Aldrich, Czech Republic) were included in this study. All cell lines were maintained according to the provider’s guidelines, and plated and treated in 96-well plates (500 to 30 × 10^3 cells per well). The tested compounds 2, 3, 4, 5, 6, 7, 8, 9, and 10 were dissolved in 0.1% DMSO and kept in 10 mM stock solutions. Before use, the stock solution was diluted in culture media at ratios of 1:100 and 1:1000. The studied cell lines were treated with the compounds 2, 3, 4, 5, 6, 7, 8, 9, and 10 at concentrations of 10 and 100 µM for 48 h. Control cells were tested in culture media with and without DMSO (0.1%). The cells were also treated with 1 µM doxorubicin as a cytotoxicity control.
# (§3) The WST-1 (2-(4-iodophenyl)-3-(4-nitrophenyl)-5-(2,4-disulfophenyl)-2H-tetrazolium, monosodium salt) test (Roche, Mannheim, Germany) was used according to the manufacturer’s protocol to determine cell viability in all 10 cell lines 48 h after treatment with the tested compounds. The cells were analyzed in a Tecan Infinite M200 spectrometer (Tecan Group, Männedorf, Switzerland) at 440 nm.
# [2] = tested on: BALB/c mice; test: Survival of whole-body irradiated mice; type: in vivo; settings: female BALB/c mice; for day post-irradiation of onset of lethal effect / decline in survival: i.p. at 50% of MTD 5 min before 7.15 Gy, non-treated control 10 days; for survival at day 30 post-irradiation: n = 10, i.p. at 50% of MTD 5 min before 7.15 Gy, control 40%
# Protocol: To estimate the radioprotective effect on whole-body irradiated mice, compounds 4 (50 mg/kg), 5 (100 mg/kg), 6 (50 mg/kg), 7 (100 mg/kg), 8 (1000 mg/kg), and 10 (325 mg/kg) were injected (intraperitoneally, i.p.) 5 min before receiving 7.15 Gy of gamma radiation. These compounds were selected based on the cytotoxicity screening in vitro, and applied at a dose corresponding to 50% of the MTD in vivo. […] The follow-up period was 30 days.
# Adult female BALB/c mice (21 ± 0.8 g) were used for all experiments (Velaz a.s., Prague, Czech Rep.). All the performed methods were in accordance with NIRS Guidelines for the Care and Use of Laboratory Animals and approved by the Committee for animal rights of the Ministry of Defence of the Czech Republic no. ČJ MO 255172/2019-684800. The mice, arranged in groups of 10 animals each, received a dose of 7.15 Gy from a ^60Co gamma source (Chisotron, Chirana, Czech Republic) at a dose rate of 1.04 Gy/min. Non-irradiated and non-treated control groups were included. Their survival and health status were checked on a daily basis for 30 days.
# Compounds 4 (50 mg/kg), 5 (100 mg/kg), 6 (50 mg/kg), 7 (100 mg/kg), 8 (1000 mg/kg), and 10 (325 mg/kg) were selected and administered i.p. 5 min before irradiation. The doses were prepared from 100 mg/mL stock before each experiment.
# [3] = WST-1 cytotoxicity test, MCF-7; type: cell-based; settings: human, MCF-7 cells, 48 h, WST-1, mean ± SD of three experiments, read-out: relative viability (%) compared to untreated control; for viability at 48 h, 10 µM: MCF-7, 10 µM; for viability at 48 h, 100 µM: MCF-7, 100 µM
# Protocol: as §1, §2, §3
# [4] = WST-1 cytotoxicity test, SAOS-2; type: cell-based; settings: human, SAOS-2 cells, 48 h, WST-1, mean ± SD of three experiments, read-out: relative viability (%) compared to untreated control; for viability at 48 h, 10 µM: SAOS-2, 10 µM; for viability at 48 h, 100 µM: SAOS-2, 100 µM
# Protocol: as §1, §2, §3
# [5] = tested on: MOLT-4 cells; test: Radioprotection in vitro, Annexin V/PI flow cytometry after irradiation; type: cell-based, human; settings: 60-min pre-treatment, 1 Gy; for viability at 100 µM: Homo sapiens, MOLT-4, light or radiation study, 24 h following irradiation, irradiated untreated 40%, non-irradiated control 92%, read-out: percentage of viable MOLT-4 cells (Annexin V and PI negative) after irradiation; for radioprotective effect in vitro (in words): 100 μM, MOLT-4
# Text: Phosphatidylserine, a major component of the inner leaflet of the cytoplasmic membrane bilayers, is frequently used as an indicator of cell death. The externalization of this phospholipid can be detected through Annexin V, which binds to phosphatidylserine in the presence of calcium. Cell viability was quantified by Annexin V-Alexa Fluor® 488/propidium iodide (PI) staining and flow cytometry analysis to determine whether the tested compounds could prevent radiation-induced cell death in MOLT-4 cells. The percentage of viable cells was 92% for non-irradiated control (0.1% DMSO vehicle) and 40% for untreated irradiated cells (1 Gy) (Figure 2A).
# Fresh 50 mM stock solutions of the compounds were prepared in DMSO (Sigma-Aldrich, St. Louis, MO, USA) before use in the study. For the radioprotection experiments, MOLT-4 cells were treated with 100 μM solutions of the novel compounds and irradiated after 60 min with a ^60Co γ-ray source (Chisotron Chirana, Prague, Czech Republic). The non-irradiated and irradiated control cells were treated with DMSO vehicle only (0.1%) and handled in parallel with the experimental cells. Non-irradiated control cells were handled in the same manner. Cell viability was determined by flow cytometry using an Alexa Fluor® 488 Annexin V/Dead Cell Apoptosis kit (Life Technologies, Grand Island, NY, USA) according to the manufacturer’s instructions. The Alexa Fluor® 488 Annexin V/Dead Cell Apoptosis kit employs the property of Alexa Fluor® 488 conjugated to Annexin V to bind to phosphatidylserine in the presence of Ca^2+, and the property of propidium iodide (PI) to enter cells with damaged cell membranes and bind to DNA. Measurement was performed using a CyAn (Beckman Coulter, Miami, FL, USA) flow cytometer. Listmode data was analyzed with the Kaluza Analysis v1.3 software (Beckman Coulter, Miami, FL, USA).
# [6] = WST-1 cytotoxicity test, HeLa; type: cell-based; settings: human, HeLa cells, 48 h, WST-1, mean ± SD of three experiments, read-out: relative viability (%) compared to untreated control
# Protocol: as §1, §2, §3
# [7] = tested on: A549 cells; test: MTT assay, IC50 and MTC; settings: for IC50 fold higher than that for compound 2 / MTC (maximum tolerated concentration): A549 cells, MTT; for MTC (maximum tolerated concentration): 24 h of treatment; for IC50: Homo sapiens, A549, 24 h, read-out: IC50 ± SEM
# Protocol: In further experiments, MTT (3-(4,5-di-methylthiazol-2-yl)-2,5-diphenyltetrazolium bromide) assay was employed to evaluate the toxicological indexes of the newly synthesized compounds, including IC50 (half-maximal inhibitory concentration) and MTC (maximum tolerated concentration).
# IC50 and MTC were determined through MTT assays. The MTT assay was performed according to [35]. In brief, the A549 cell line was plated in 96-well plates (100 µL, 9 × 10^3 cells per well) and incubated overnight. The tested compounds were prepared in phosphate buffer saline (PBS; Sigma–Aldrich) and serially diluted in DMEM (Dulbecco’s Modified Eagle Medium). An untreated control was included as a viability standard in each plate. After 24 h of treatment, the viability of A549 cells was measured at 570 nm. All experiments were performed in triplicate. The GraphPad Prism statistics software v5.04 (GraphPad Software Inc., San Diego, CA, USA) was used to calculate the IC50 values for parameter nonlinear regression. Values are expressed as mean ± SEM.
# [8] = WST-1 cytotoxicity test, A549; type: cell-based; settings: human, A549 cells, 48 h, WST-1, mean ± SD of three experiments, read-out: relative viability (%) compared to untreated control; for viability at 48 h, 10 µM: A549, 10 µM; for viability at 48 h, 100 µM: A549, 100 µM
# Protocol: as §1, §2, §3
Structure (SMILES),"viability at 48 h, 10 µM [1] [%]","viability at 48 h, 100 µM [1] [%]",day post-irradiation of onset of lethal effect / decline in survival [2] [days],survival at day 30 post-irradiation [2] [%],"viability at 48 h, 10 µM [3] [%]","viability at 48 h, 100 µM [3] [%]","viability at 48 h, 10 µM [4] [%]","viability at 48 h, 100 µM [4] [%]",viability at 100 µM [5] [%],"viability at 48 h, 10 µM [6] [%]","viability at 48 h, 100 µM [6] [%]",IC50 fold higher than that for compound 2 [7] [fold],MTC (maximum tolerated concentration) [7] [mM],IC50 [7] [µM],"viability at 48 h, 10 µM [8] [%]","viability at 48 h, 100 µM [8] [%]",radioprotective effect in vitro (in words) [5]
"Cc1cc(OCC(O)CN2CCN(CCO)CC2)ccc1Cl.Cl.Cl (centres unmarked) [Compound 4, 1-(4-chloro-3-methylphenoxy)-3-(4-(2-hydroxyethyl)piperazin-1-yl)propan-2-ol dihydrochloride]",98 ± 2,89 ± 1,> 12,50,105 ± 4,90 ± 3,99 ± 6,88 ± 4,61,106 ± 2,137 ± 5,16.0,0.05,640 ± 30,100 ± 4,99,
"Cl.Cl.Cl.OCCN1CCN(CCCNc2ccccc2)CC1 [Compound 5, 2-(4-(3-(phenylamino)propyl)piperazin-1-yl)ethanol trihydrochloride]",93 ± 5,105 ± 8,10,30,101 ± 6,106 ± 1,96 ± 4,111 ± 6,59,100 ± 4,116 ± 10,33.8,0.05,1350 ± 120,86 ± 7,104 ± 8,did not show statistically significant radioprotective effect
"Cl.Cl.Cl.OCCN1CCN(CCCNc2cccc3ccccc23)CC1 [Compound 6, 2-(4-(3-(naphthalen-1-ylamino)propyl)piperazin-1-yl)ethanol trihydrochloride]",74 ± 3,95 ± 4,10,20,102 ± 8,94 ± 9,94 ± 6,111 ± 4,69,108 ± 6,104 ± 7,11.3,0.02,450 ± 10,103 ± 7,93 ± 3,
"COc1ccc(NCCCN2CCN(CCO)CC2)cc1.Cl.Cl.Cl [Compound 7, 2-(4-(3-((4-methoxyphenyl)amino)propyl)piperazin-1-yl)ethanol trihydrochloride]",94 ± 3,91 ± 2,9,0,105 ± 6,104 ± 6,102 ± 7,109 ± 2,64,96 ± 8,132 ± 3,63.8,0.39,2550 ± 210,95 ± 5,115,
"Cl.Cl.OC(CNc1ccccc1)CNc1ccccc1 [Compound 9, 1,3-bis(phenylamino)propan-2-ol dihydrochloride]",90 ± 3,64 ± 5,,,100 ± 4,98 ± 11,106 ± 2,90 ± 4,34,99 ± 9,90 ± 14,6.0,0.09,240 ± 10,107 ± 11,98 ± 13,no significant radioprotective effect
